Key:
[1] = xn = mol fraction of the nth substance listed; conditions: 100 kPa, Liquid; for viscosity: Capillary tube (Ostwald / Ubbelohde) method; for mass density: Vibrating tube method
[2] = refractive index (Na D-line) (dimensionless); xn = mol fraction of the nth substance listed; conditions: 100 kPa, Liquid, Standard Abbe refractometry

C1CC[C@H]2CCCC[C@H]2C1 [cis-decahydronaphthalene] + CCCCCCCCC
Conditions	mass density, [1] [kg/m3]	refractive index, [2]	viscosity, [1] [mPa·s]
293.15 K, x1 = 0.1031	734.59	–	0.788
293.15 K, x1 = 0.2033	751.1	–	0.899
293.15 K, x1 = 0.2973	766.96	–	1.02
293.15 K, x1 = 0.3997	784.54	–	1.139
293.15 K, x1 = 0.4978	801.87	–	1.268
293.15 K, x1 = 0.6044	821.02	–	1.507
293.15 K, x1 = 0.6961	837.96	–	1.769
293.15 K, x1 = 0.8014	857.86	–	2.111
293.15 K, x1 = 0.8976	876.48	–	2.526
293.15 K, x1 = 1	896.85	–	3.355
298.15 K, x1 = 0.1031	730.75	1.4095	0.737
298.15 K, x1 = 0.2033	747.26	1.4168	0.826
298.15 K, x1 = 0.2973	763.14	1.4232	0.956
298.15 K, x1 = 0.3997	780.74	1.4311	1.064
298.15 K, x1 = 0.4978	798.1	1.438	1.171
298.15 K, x1 = 0.6044	817.23	1.4459	1.385
298.15 K, x1 = 0.6961	834.18	1.4533	1.624
298.15 K, x1 = 0.8014	854.08	1.4613	1.919
298.15 K, x1 = 0.8976	872.72	1.4688	2.288
298.15 K, x1 = 1	893.06	1.4776	3.011
303.15 K, x1 = 0.1031	726.86	–	0.695
303.15 K, x1 = 0.2033	743.4	–	0.786
303.15 K, x1 = 0.2973	759.3	–	0.883
303.15 K, x1 = 0.3997	776.91	–	0.986
303.15 K, x1 = 0.4978	794.29	–	1.086
303.15 K, x1 = 0.6044	813.43	–	1.276
303.15 K, x1 = 0.6961	830.38	–	1.49
303.15 K, x1 = 0.8014	850.29	–	1.748
303.15 K, x1 = 0.8976	868.92	–	2.081
303.15 K, x1 = 1	889.26	–	2.718
308.15 K, x1 = 0.1031	722.96	1.4047	0.655
308.15 K, x1 = 0.2033	739.52	1.4121	0.739
308.15 K, x1 = 0.2973	755.44	1.4189	0.826
308.15 K, x1 = 0.3997	773.07	1.4269	0.917
308.15 K, x1 = 0.4978	790.46	1.4336	1.01
308.15 K, x1 = 0.6044	809.61	1.4425	1.182
308.15 K, x1 = 0.6961	826.58	1.4492	1.372
308.15 K, x1 = 0.8014	846.49	1.4572	1.606
308.15 K, x1 = 0.8976	865.13	1.4654	1.891
308.15 K, x1 = 1	885.46	1.4736	2.47
313.15 K, x1 = 0.1031	719.05	–	0.617
313.15 K, x1 = 0.2033	735.63	–	0.698
313.15 K, x1 = 0.2973	751.56	–	0.77
313.15 K, x1 = 0.3997	769.21	–	0.852
313.15 K, x1 = 0.4978	786.62	–	0.943
313.15 K, x1 = 0.6044	805.79	–	1.099
313.15 K, x1 = 0.6961	822.76	–	1.26
313.15 K, x1 = 0.8014	842.68	–	1.476
313.15 K, x1 = 0.8976	861.33	–	1.732
313.15 K, x1 = 1	881.65	–	2.252
318.15 K, x1 = 0.1031	715.12	1.4002	0.588
318.15 K, x1 = 0.2033	731.73	1.4077	0.662
318.15 K, x1 = 0.2973	747.68	1.4145	0.728
318.15 K, x1 = 0.3997	765.35	1.4223	0.802
318.15 K, x1 = 0.4978	782.77	1.4294	0.89
318.15 K, x1 = 0.6044	801.95	1.4379	1.033
318.15 K, x1 = 0.6961	818.94	1.4452	1.174
318.15 K, x1 = 0.8014	838.88	1.4533	1.374
318.15 K, x1 = 0.8976	857.52	1.4616	1.604
318.15 K, x1 = 1	877.85	1.4696	2.079
323.15 K, x1 = 0.1031	711.17	–	0.559
323.15 K, x1 = 0.2033	727.8	–	0.626
323.15 K, x1 = 0.2973	743.78	–	0.681
323.15 K, x1 = 0.3997	761.47	–	0.753
323.15 K, x1 = 0.4978	778.9	–	0.835
323.15 K, x1 = 0.6044	798.11	–	0.965
323.15 K, x1 = 0.6961	815.11	–	1.094
323.15 K, x1 = 0.8014	835.06	–	1.262
323.15 K, x1 = 0.8976	853.71	–	1.477
323.15 K, x1 = 1	874.05	–	1.912

Source: the NIST ThermoML archive (doi:10.1021/je400250u)
